From PMC10122656, “Siglec-6 mediates the uptake of extracellular vesicles through a noncanonical glycolipid binding pocket” (Nature Communications, 2023)
Values joined by “and” are separate entries in the source; they are usually repeats but may differ in a detail not shown here. Equal entries are not always repeated.

Key:
Siglec-1 fragment = Siglec-1 fragment (Homo sapiens, UniProt Q9BZZ2); assay: Direct ESI-MS binding assay; details: oligosaccharide moiety of the ganglioside; 3.6 µM Siglec-1 fragment, 20-140 µM ligand; table gives replicates, text mean ± SD; read-out: dissociation constant (Kd) of soluble Siglec-1 to the ganglioside oligosaccharide
Method: The affinities of ganglioside (GM1, GM2, GM3, and GD1a) oligosaccharides (L) for the Siglec-1 fragment were measured by the direct ESI-MS assay[1]. A reference protein (Pref) was added to the ESI solutions in order to correct mass spectra for any nonspecific binding that occurred during the ESI process[2]. […] Direct ESI-MS measurements were performed with nanoflow ESI in positive ion mode (voltage ~1 kV) on a Q-Exactive Orbitrap mass spectrometer (Thermo Fisher Scientific). Automatic gain control (AGC) target, the maximum inject time, capillary temperature, and S-lens RF level were set to 1 × 10^6, 100 ms, 150, and 100 °C, respectively. The resolution was 17,500 at m/z 200. Data acquisition and processing were carried out using Xcalibur (Thermo Fisher, version 4.1).

WT Siglec-6 CHO cells = target: T1, WT Siglec-6 CHO cells (Homo sapiens, UniProt O43699); assay: Cell assay (liposome/EV binding, flow cytometry);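 for liposome binding, fluorescence signal (replicates): AF647 fluorescence intensity from 0.1 mol% AF647–PEG45–DSPE in liposomes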; format: cell-based; details: for Binding of liposomes to WT Siglec-6 CHO cells relative to liposomes formulated without a ligand (Fig. 3c): 3 mol% glycolipid, Cer = native ganglioside, Amide = amide-linked nGL; for Binding of liposomes to WT Siglec-6 CHO cells relative to liposomes formulated without a ligand (Fig. 3c) / Binding of nGL liposomes relative to liposomes formulated with 3 mol% nGL 5 (Fig. 3g): replicates; for nGLL binding to WT Siglec-6 CHO cells (in words): 3 mol% nGL in liposomes; for Binding of nGL liposomes relative to liposomes formulated with 3 mol% nGL 5 (Fig. 3g): WT Siglec-6 CHO cells
T1 construct: expressed in transfected cells
Method: (§1) Stock lipids (DSPC, Cholesterol, PEG45–DSPE) solutions were prepared by solvating the lipids in chloroform. An appropriate volume of each lipid solution was transferred to a glass test tube to reach the desired mol% of the component. The chloroform was then removed under N2 gas to yield a lipid thin film. Once dry, 100 µL of DMSO was added to the lipid-containing test tube and then the functional lipids (ganglioside, AF647–PEG45–DSPE, Siglec ligand–PEG45–DSPE, pHrodo–PEG45–DSPE, NGL) was added from their respect DMSO stock solution. The lipid mixture was then stored at −80 °C until completely frozen at which point excess DMSO was removed via lyophilization. Dry lipids were then stored at −80 °C until they were extruded. Lipid suppliers can be found in Supplementary Table 4.
(§2) Dry lipids were then hydrated in 1 mL of PBS. The lipids were then sonicated in a bath sonicator in a cycle of 1 min on, 5 min off for a total of five cycles. Liposomes were then extruded using an Avanti mini extruder first using an 800 nm filter and then a 100 nm filter yielding liposomes that were 130 ± 35 nm (Supplementary Table 5) measured using a Malvern Panalytical Zetasizer Nano S. Liposomes were stored at 4 °C.
(§3) 200,000 cells/well were plated into a 96-well U-bottom microplate and centrifuged at 300 × g for 5 min. The cells were then resuspended in 50 µL of 50 µM liposome/50 µg/mL (protein concentration) of EV solution in DMEM F12 5% FBS and incubated at 37 °C for 30 min. Excess liposomes were then removed via centrifuged at 300 × g for 5 min followed by washing the cells with FACS solution. The cells were then resuspended in (1:250 V/V) anti-Siglec-flow buffer (1% V/V FBS, 500 µM, EDTA Hank’s Balanced Salt Solution pH 7.4), solution and left to rest on ice for 30 min. The cells were then centrifuged again at 300 × g for 5 min and the cells were resuspended in FACS buffer solution and were then ready for analysis by flow cytometry. Information regarding antibody clone, catalog number supplier, label isotype, and dilution can be found in Supplementary Table 6. The Siglec-positive cells were gated on for liposome-binding analysis (Supplementary Fig. 1b).
(§4) Flow cytometry measurements were collected on a 5-laser Fortessa X-20 (BD Bioscience). All the resulting data were analyzed using FlowJo (10.5.3) software (BD Biosciences).

R122A Siglec-6 CHO cells = target: T2, R122A Siglec-6 CHO cells (Homo sapiens, UniProt O43699, R122A); assay: Cell assay (liposome/EV binding, flow cytometry);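 for liposome binding, fluorescence signal (replicates): AF647 fluorescence intensity from 0.1 mol% AF647–PEG45–DSPE in liposomes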; format: cell-based; details: for nGLL binding to R122A Siglec-6 CHO cells (in words): 3 mol% nGL in liposomes, compared to 3 mol% 5; for Binding of nGL liposomes relative to liposomes formulated with 3 mol% nGL 5 (Fig. 3g): R122A Siglec-6 CHO cells, replicates; for liposome binding, fluorescence signal (replicates): sheet Figure S18b, cells not given
T2 construct: expressed in transfected cells
Method: as §1, §2, §3, §4

[1] = test system: untransfected (UT) CHO cells; assay: Cell assay (liposome/EV binding, flow cytometry); format: cell-based, Chinese Hamster; details: sheet Figure S22b, CHO;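 note: AF647 fluorescence intensity from 0.1 mol% AF647–PEG45–DSPE in liposomes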
Method: as §1, §2, §3, §4

WT Siglec-1 CHO cells = target: T3, WT Siglec-1 CHO cells (Homo sapiens, UniProt Q9BZZ2); assay: Cell assay (liposome/EV binding, flow cytometry); format: cell-based; parameters: GM1 liposome binding to Siglec-1 CHO cells, flow cytometry (Fig. 1b) / Binding of liposomes with increasing ganglioside content against Siglec-1 CHO cells (Fig. 1c) / Liposome binding to Siglec-1-expressing CHO cells in the cell assay (Fig. 1f): unit not given here
T3 construct: expressed in transfected cells
Method: as §1, §2, §3, §4

[2] = sheet Figure S17, cells not given, three experiments, each with its own Naked control
[3] = sheet Figure S18a, cells not given

T2 sequence (O43699 27-453 R122A): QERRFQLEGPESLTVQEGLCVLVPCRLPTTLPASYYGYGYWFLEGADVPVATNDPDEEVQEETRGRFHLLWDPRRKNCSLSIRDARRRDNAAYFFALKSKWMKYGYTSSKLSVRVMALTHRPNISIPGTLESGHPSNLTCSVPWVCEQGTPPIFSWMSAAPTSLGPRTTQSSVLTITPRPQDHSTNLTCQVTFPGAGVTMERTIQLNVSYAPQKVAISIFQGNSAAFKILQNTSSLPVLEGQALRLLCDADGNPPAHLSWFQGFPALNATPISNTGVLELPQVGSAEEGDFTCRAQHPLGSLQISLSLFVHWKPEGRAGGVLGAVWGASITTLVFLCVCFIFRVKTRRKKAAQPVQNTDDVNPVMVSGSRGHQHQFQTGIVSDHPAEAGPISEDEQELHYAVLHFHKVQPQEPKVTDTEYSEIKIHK
T3 sequence (Q9BZZ2 20-1709): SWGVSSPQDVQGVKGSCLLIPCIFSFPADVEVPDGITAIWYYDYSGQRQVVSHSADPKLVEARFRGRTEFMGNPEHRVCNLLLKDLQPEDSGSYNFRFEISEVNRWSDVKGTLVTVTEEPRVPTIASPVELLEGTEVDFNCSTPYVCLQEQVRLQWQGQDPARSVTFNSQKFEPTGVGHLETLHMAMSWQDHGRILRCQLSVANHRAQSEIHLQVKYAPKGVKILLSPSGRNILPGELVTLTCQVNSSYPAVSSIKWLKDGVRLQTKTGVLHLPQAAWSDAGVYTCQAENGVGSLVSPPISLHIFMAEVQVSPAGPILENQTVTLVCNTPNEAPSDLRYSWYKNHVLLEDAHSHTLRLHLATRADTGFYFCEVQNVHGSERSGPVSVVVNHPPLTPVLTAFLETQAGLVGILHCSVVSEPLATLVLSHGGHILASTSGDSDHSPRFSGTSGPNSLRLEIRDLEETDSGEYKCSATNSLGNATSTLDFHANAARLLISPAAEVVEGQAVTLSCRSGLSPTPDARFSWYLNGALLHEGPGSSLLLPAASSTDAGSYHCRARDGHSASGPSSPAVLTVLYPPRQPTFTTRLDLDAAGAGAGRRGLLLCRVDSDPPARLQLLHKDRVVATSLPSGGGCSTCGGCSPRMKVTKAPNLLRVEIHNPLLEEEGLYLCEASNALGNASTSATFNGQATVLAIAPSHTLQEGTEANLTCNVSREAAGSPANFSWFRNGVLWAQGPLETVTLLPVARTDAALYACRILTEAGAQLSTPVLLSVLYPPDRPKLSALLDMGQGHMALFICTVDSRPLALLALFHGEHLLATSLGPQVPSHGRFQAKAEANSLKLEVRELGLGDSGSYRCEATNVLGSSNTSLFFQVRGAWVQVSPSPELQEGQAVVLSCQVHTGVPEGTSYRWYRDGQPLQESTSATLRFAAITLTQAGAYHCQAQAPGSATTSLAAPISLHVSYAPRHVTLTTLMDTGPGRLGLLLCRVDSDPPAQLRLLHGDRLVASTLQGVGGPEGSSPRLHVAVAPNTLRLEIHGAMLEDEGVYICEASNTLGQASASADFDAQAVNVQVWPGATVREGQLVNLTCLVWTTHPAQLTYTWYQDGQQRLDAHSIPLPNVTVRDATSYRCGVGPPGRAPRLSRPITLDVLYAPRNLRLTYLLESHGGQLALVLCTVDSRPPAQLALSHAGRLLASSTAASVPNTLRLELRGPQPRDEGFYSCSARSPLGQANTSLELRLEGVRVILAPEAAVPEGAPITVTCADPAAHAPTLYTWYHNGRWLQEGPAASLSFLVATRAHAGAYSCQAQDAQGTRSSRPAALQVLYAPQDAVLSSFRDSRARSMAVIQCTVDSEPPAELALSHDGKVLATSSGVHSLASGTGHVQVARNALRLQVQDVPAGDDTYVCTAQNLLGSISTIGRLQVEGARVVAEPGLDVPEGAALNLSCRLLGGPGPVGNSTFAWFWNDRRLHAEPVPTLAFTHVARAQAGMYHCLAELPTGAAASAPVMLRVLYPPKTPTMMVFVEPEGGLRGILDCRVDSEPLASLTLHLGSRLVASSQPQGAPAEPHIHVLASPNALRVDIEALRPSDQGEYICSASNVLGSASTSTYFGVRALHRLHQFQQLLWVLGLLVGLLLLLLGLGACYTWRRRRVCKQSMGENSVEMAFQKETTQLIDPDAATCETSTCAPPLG
T1 sequence (O43699 27-453): as the sequence (O43699 27-453 R122A) above, with A96R counted along it
Chain of Siglec-1 fragment (Q9BZZ2 20-136 limits assumed): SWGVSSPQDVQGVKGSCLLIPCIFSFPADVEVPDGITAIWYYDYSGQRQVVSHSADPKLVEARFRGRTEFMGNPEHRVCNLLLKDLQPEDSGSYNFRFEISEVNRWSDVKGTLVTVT

Molecule	nGLL binding to WT Siglec-6 CHO cells (in words) (WT Siglec-6 CHO cells)	Binding of nGL liposomes relative to liposomes formulated with 3 mol% nGL 5 (Fig. 3g) (R122A Siglec-6 CHO cells)	liposome binding, fluorescence signal (replicates) (R122A Siglec-6 CHO cells)	Binding of nGL liposomes relative to liposomes formulated with 3 mol% nGL 5 (Fig. 3g) (WT Siglec-6 CHO cells)	liposome binding, fluorescence signal (replicates) (WT Siglec-6 CHO cells; [3])	further results
CC(=O)N[C@H]1[C@H]([C@H](O)[C@H](O)CO)O[C@@](O[C@H]2[C@@H](O)[C@@H](CO)O[C@@H](O[C@H]3[C@H](O)[C@@H](O)C(O)O[C@@H]3CO)[C@@H]2O)(C(=O)O)C[C@@H]1O (stereo partly drawn) [GM3 trisaccharide, α-Neup5Ac-(2 → 3)-β-lactose]						Kd (Siglec-1 fragment): 500 ± 100 µM
CCCCCCCCCCCCCCCCOCC(COCCCCCCCCCCCCCCCC)OCC(=O)NCCO[C@@H]1O[C@H](CO)[C@@H](O[C@@H]2O[C@H](CO)[C@H](O[C@@H]3O[C@H](CO)[C@H](O)[C@H](O[C@@H]4O[C@H](CO)[C@H](O)[C@H](O)[C@H]4O)[C@H]3NC(C)=O)[C@H](O[C@]3(C(=O)O)C[C@H](O)[C@@H](NC(C)=O)[C@H]([C@H](O)[C@H](O)CO)O3)[C@H]2O)[C@H](O)[C@H]1O [nGL 3]	bound minimally					Binding of liposomes to WT Siglec-6 CHO cells relative to liposomes formulated without a ligand (Fig. 3c) (WT Siglec-6 CHO cells; listed as GM1 Amide): 0.68 and 0.67 and 0.66 and 0.75; liposome binding, fluorescence signal (replicates) (WT Siglec-6 CHO cells; [2]): 541 and 535 and 525 and 596
CCCCCCCCCCCCCCCCOCC(COCCCCCCCCCCCCCCCC)OCC(=O)NCCO[C@@H]1O[C@H](CO)[C@@H](O[C@@H]2O[C@H](CO)[C@H](O)[C@H](O[C@]3(C(=O)O)C[C@H](O)[C@@H](NC(C)=O)[C@H]([C@H](O)[C@H](O)CO)O3)[C@H]2O)[C@H](O)[C@H]1O [nGL 4]						Binding of liposomes to WT Siglec-6 CHO cells relative to liposomes formulated without a ligand (Fig. 3c) (WT Siglec-6 CHO cells; listed as GM3 Amide): 2.34 and 2.47 and 2.38 and 2.75; liposome binding, fluorescence signal (replicates) (WT Siglec-6 CHO cells; [2]): 713 and 752 and 727 and 839
CCCCCCCCCCCCCCCCOCC(COCCCCCCCCCCCCCCCC)OCc1cn(CCO[C@@H]2O[C@H](CO)[C@@H](O[C@@H]3O[C@H](CO[C@]4(C(=O)O)C[C@H](O)[C@@H](NC(C)=O)[C@H]([C@H](O)[C@H](O)CO)O4)[C@H](O)[C@H](O)[C@H]3O)[C@H](O)[C@H]2O)nn1 [nGL 8]	bound minimally	0.06 and 0.08 and 0.07	599 and 635 and 605	0.05 and 0.03 and 0.06 and 0.07	720 and 670 and 748 and 768	nGLL binding to R122A Siglec-6 CHO cells (in words) (R122A Siglec-6 CHO cells): bound minimally
CCCCCCCCCCCCCCCCOCC(COCCCCCCCCCCCCCCCC)OCc1cn(CCO[C@@H]2O[C@H](CO)[C@@H](O[C@@H]3O[C@H](CO)[C@H](O)[C@H](O[C@]4(C(=O)O)C[C@H](O)[C@@H](NC(C)=O)[C@H]([C@H](O)[C@H](O)CO)O4)[C@H]3O)[C@H](O)[C@H]2NC(C)=O)nn1 [nGL 9]	modestly lower	0.83 and 0.93 and 0.81 and 1.01	1939 and 2127 and 1908 and 2268	0.77 and 0.6 and 0.59 and 0.63	2520 and 2097 and 2058 and 2158	
CCCCCCCCCCCCCCCCOCC(COCCCCCCCCCCCCCCCC)OCc1cn(CCO[C@@H]2O[C@H](CO)[C@@H](O[C@@H]3O[C@H](CO[C@]4(C(=O)O)C[C@H](O)[C@@H](NC(C)=O)[C@H]([C@H](O)[C@H](O)CO)O4)[C@H](O)[C@H](O)[C@H]3O)[C@H](O)[C@H]2NC(C)=O)nn1 [nGL 10]	bound minimally	0.23 and 0.15 and 0.27	899 and 894 and 758 and 962	0.19 and 0.16 and 0.21	1069 and 1003 and 987 and 1125	nGLL binding to R122A Siglec-6 CHO cells (in words) (R122A Siglec-6 CHO cells): bound minimally
asialo GM1 [GA1]						liposome binding, fluorescence signal (replicates) (WT Siglec-6 CHO cells; sheet Figure S22b, Sig-6): 66 and 69 and 61 and 64; liposome binding, fluorescence signal (replicates) [1]: 60 and 57 and 55 and 52; Liposome binding to Siglec-1-expressing CHO cells in the cell assay (Fig. 1f) (WT Siglec-1 CHO cells; 3% glycolipid in liposome, replicates): 71 and 68; binding to WT Siglec-1 CHO cells (in words) (WT Siglec-1 CHO cells; cell assay): did not mediate binding
